For one test, the target named is T1, TaGSK1 (Triticum aestivum, UniProt Q8LK43).
T1 construct: full length, N-terminal GST fusion, expressed in E. coli, glutathione Sepharose purified, tag kept
The experiment in a line: in vitro kinase assay, […] phosphorylation of myelin basic protein, autoradiography. The class given is biochemical. To be noted: read-out: % residual activity at 15 μM.

For a further test, the target named is T2, BIN2 (Arabidopsis thaliana, UniProt Q39011).
T2 construct: gene ASK7; full length, N-terminal GST fusion, expressed in E. coli, glutathione Sepharose purified, tag kept
T2 sequence (Q39011 1-380): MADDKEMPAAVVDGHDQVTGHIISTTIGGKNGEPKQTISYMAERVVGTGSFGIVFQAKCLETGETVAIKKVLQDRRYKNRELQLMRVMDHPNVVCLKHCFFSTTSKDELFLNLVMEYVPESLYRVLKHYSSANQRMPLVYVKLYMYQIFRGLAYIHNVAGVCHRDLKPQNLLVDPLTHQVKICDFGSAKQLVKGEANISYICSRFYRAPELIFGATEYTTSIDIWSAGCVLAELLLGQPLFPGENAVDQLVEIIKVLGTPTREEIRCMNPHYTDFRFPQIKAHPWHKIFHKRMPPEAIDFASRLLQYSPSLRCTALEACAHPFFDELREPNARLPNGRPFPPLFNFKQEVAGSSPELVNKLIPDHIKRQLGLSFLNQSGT
The description is as above. Format: biochemical. As to conditions: read-out: % residual activity at 15 μM.

Bounds are passed on as bounds.

T1 sequence (Q8LK43 1-381): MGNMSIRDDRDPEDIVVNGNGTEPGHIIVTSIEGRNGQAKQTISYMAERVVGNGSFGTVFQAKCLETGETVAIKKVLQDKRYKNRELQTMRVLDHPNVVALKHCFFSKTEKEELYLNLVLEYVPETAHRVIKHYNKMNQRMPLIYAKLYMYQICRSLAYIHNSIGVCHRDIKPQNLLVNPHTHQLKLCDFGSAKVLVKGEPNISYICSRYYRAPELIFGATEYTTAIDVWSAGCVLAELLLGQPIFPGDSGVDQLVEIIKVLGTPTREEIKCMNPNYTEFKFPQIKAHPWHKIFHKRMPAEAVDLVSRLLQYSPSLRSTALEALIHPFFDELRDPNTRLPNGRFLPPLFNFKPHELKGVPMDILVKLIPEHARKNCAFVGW

On to `O=C(O)CCC(=O)Nc1ccc(Br)cn1` [Bikinin, 4-[(5-bromo-2-pyridinyl)amino]-4-oxobutanoic acid], for which the values for the remaining activity at 15 µM at TaGSK1 and at BIN2 were around 30% and below 5%, respectively.

These data come from article PMC4604091, “Two homolog wheat Glycogen Synthase Kinase 3/SHAGGY - like kinases are involved in brassinosteroid signaling” (BMC Plant Biology, 2015).
